From PMC10060639, “Prediction and bioactivity of small-molecule antimicrobial peptides from Protaetia brevitarsis Lewis larvae” (Frontiers in Microbiology, 2023) come the findings set out here.

Data set [1] has as its system E. coli. Put plainly: agar punch method, inhibition circle. Type of data set: cell-based, Escherichia coli. The settings on record: 6 mm hole, 55 μL of 1 mg/mL, NA, 37°C, 16–18 h, mean ± SD, three replicates, + control given per plate group. As to the method: (§1) Staphylococcus aureus CMCC(B) 26003, B. thuringiensis, E. coli, and P. aeruginosa CMCC(B)10104 were cultured in NA medium and C. albicans CMCC(F) 98001 was cultured in SDA medium. They were incubated in a constant-temperature (bacteria: 37°C; fungi: 28°C) incubator for 16–20 h. Thereafter, single colonies were picked and incubated in 50 mL MHB at 160 rpm/min at the optimal growth temperature (bacteria: 37°C; fungi: 28°C). Microbial suspensions of 1 × 10^6 CFU/mL were then prepared ([Chen et al., 2016]).
(§2) 100 μL of 1 × 10^6 CFU/mL microbial suspension (E. coli, P. aeruginosa CMCC(B)10104, B. thuringiensis, S. aureus CMCC(B) 26003, or C. albicans CMCC(F) 98001) was evenly applied to dishes containing 20 mL NA (bacteria) or SDA (fungi). After the microbial solution solidified, six holes per dish were punched with a sterile pipette tip of 6 mm in diameter, with each hole spaced >20 mm apart and > 10 mm apart from the edge of the dish. […] Next, 55 μL of 1 mg/mL control/treatment was added to each hole and incubated in a constant-temperature (bacteria: 37°C; fungi: 28°C) incubator for 16–18 h ([Chen et al., 2016]; [Gong et al., 2022]), with three replicates for each treatment group. The diameter of the inhibition circle was measured using ImageJ software (National Institutes of Health, United States) in order to preliminarily determine whether the candidate peptides had inhibitory activity.

Data set [2] deals with P. aeruginosa CMCC(B)10104. The data set can be described thus: agar punch method, inhibition circle. Type of data set: cell-based, Pseudomonas aeruginosa. The settings on record: 6 mm hole, 55 μL of 1 mg/mL, NA, 37°C, 16–18 h, mean ± SD, three replicates, + control given per plate group. The method, then: as §1, §2
The test system of data set [3] is B. thuringiensis. Put plainly: agar punch method, inhibition circle. The following applies: 6 mm hole, 55 μL of 1 mg/mL, NA, 37°C (Fig. S3C: 30°C), 16–18 h, mean ± SD, three replicates, + control given per plate group. Type of data set: cell-based, Bacillus thuringiensis. As to the method: as §1, §2
The test system of data set [4] is S. aureus CMCC(B) 26003. The data set can be described thus: agar punch method, inhibition circle. Type of data set: cell-based, Staphylococcus aureus. The following applies: 6 mm hole, 55 μL of 1 mg/mL, NA, 37°C, 16–18 h, mean ± SD, three replicates, + control given per plate group. The method, then:
as §1, §2

Data set [5] relates to C. albicans CMCC(F) 98001. Put plainly: agar punch method, inhibition circle. Type of data set: cell-based, Candida albicans. The following applies: 6 mm hole, 55 μL of 1 mg/mL, SDA, 28°C, 16–18 h, mean ± SD, three replicates, + control given per plate group. The method, then: as §1, §2
Data set [6] relates to E. coli. The data set can be described thus: dynamic antimicrobial analysis (OD600 growth over 10 h). Type of data set: cell-based, Escherichia coli. The following applies: 1/4× MIC, OD600 every hour for 10 h, 37°C, n = 3. As to the method:
(§3) Therefore, the follow-up experiments involved these two bacteria, along with the three AMPs with the best antimicrobial effects (FD10, FD12, and FD15). The dynamic antimicrobial effects were analyzed by measuring the effects of the AMPs on bacterial growth over 10 h. First, 100 μL microbial solution (1.0 × 10^6 CFU/mL) was added to the wells of a 96-well culture plate, and then 100 μL AMP (at 1× and 1/4× MIC) was added and the mixtures were cultured at 37°C ([Mishra et al., 2013]; [Memariani et al., 2016]). 100 μL MHB with 100 μL microbial solution was used as the control group. The optical density at 600 nm (OD600) was measured every hour for 10 h using a microplate reader ([Hou et al., 2007]). The experiment was conducted in triplicate.

Data set [7] concerns S. aureus CMCC(B) 26003. Described as above. Type of data set: cell-based, Staphylococcus aureus. The settings on record: 1/4× MIC, OD600 every hour for 10 h, 37°C, n = 3. The method, then:
as §3

Data set [8] concerns mouse RAW 264.7 macrophages. The data set can be described thus: cytotoxicity, MTT assay. Type of data set: cell-based. The settings on record: at 256 μg/mL, 24 h incubation, absorbance 570 nm, n = 3. As to the method: Followed the removing of the MTT, dimethyl sulfoxide (DMSO) (150 μL/well) was added and the absorbance was measured at 570 nm. Untreated cells were used as a control. […] The cytotoxicity detection was repeated in triplicate.

Data set [9] has as its system E. coli. Type of data set: cell-based, Escherichia coli. The settings on record: micro-broth dilution, two-fold dilutions, 37°C, 16–18 h, no visible growth, triplicate. The method, then:
as §1
(§4) The MIC values of five candidate peptides (FD4, FD10, FD12, FD14, and FD15), which were selected based on physicochemical properties and antimicrobial effects (determined by the agar punch method), were evaluated using a micro-broth dilution method ([Zhou and Zhou, 2018]). Serial two-fold dilutions of the candidate peptides were prepared in 96-well plates containing the same microbial inoculum (E. coli, P. aeruginosa CMCC(B)10104, B. thuringiensis, S. aureus CMCC(B) 26003, or C. albicans CMCC(F) 98001). The plates were incubated (bacteria: 37°C; fungi: 28°C) for 16–18 h. Ampicillin was used as the positive control. The MIC was defined as the lowest peptide concentration where no visible growth occurred ([Diao et al., 2014]). The experiment was conducted in triplicate.

The test system of data set [10] is P. aeruginosa CMCC(B)10104. Type of data set: cell-based, Pseudomonas aeruginosa. The following applies: micro-broth dilution, two-fold dilutions, 37°C, 16–18 h, no visible growth, triplicate. As to the method: as §1, §4
The subject of data set [11] is B. thuringiensis. Type of data set: cell-based, Bacillus thuringiensis. The following applies: micro-broth dilution, two-fold dilutions, 37°C, 16–18 h, no visible growth, triplicate. As to the method: as §1, §4
The subject of data set [12] is S. aureus CMCC(B) 26003. Type of data set: cell-based, Staphylococcus aureus. The settings on record: micro-broth dilution, two-fold dilutions, 37°C, 16–18 h, no visible growth, triplicate. The method, then:
as §1, §4

Data set [13] deals with C. albicans CMCC(F) 98001. Type of data set: cell-based, Candida albicans. The following applies: micro-broth dilution, two-fold dilutions, 28°C, 16–18 h, no visible growth, triplicate. The method, then: as §1, §4
Data set [14] relates to E. coli. Type of data set: cell-based, Escherichia coli. The settings on record: E. coli, 16–18 h, triplicate. The method, then:
(§5) E. coli and S. aureus CMCC(B) 26003 (1 × 10^6 CFU/mL) were incubated in MHB with various final physiological concentrations of serum salts (150 mM NaCl, 4.5 mM KCl, 1 mM MgCl2, and […]). 50 μL of these E. coli or S. aureus CMCC(B) 26003 suspensions and 50 μL of AMP (serially diluted two-fold to a final concentration of 256 μg/mL) were added to a 96-well plate and incubated at 37°C for 16–18 h ([Chou et al., 2016]). The MIC values were then determined. The experiment was conducted in triplicate.

Data set [15] concerns S. aureus CMCC(B) 26003. Type of data set: cell-based, Staphylococcus aureus. The settings on record: 16–18 h, triplicate. As to the method: as §5
In data set [16] the test system is E. coli. The data set can be described thus: time-kill assay. Type of data set: cell-based, Escherichia coli. The settings on record: 2× MIC, MHB with 10^6 CFU/mL, 37°C, 100 rpm, colony counting, n = 3. As to the method: (§6) The kill-time curve assay method was used to investigate the bactericidal effects of the […] according to the technique described by [Joray et al. (2011)]. A time–kill assay was used to examine the rate at which three AMPs (FD10, FD12, and FD15) killed two microbes (S. aureus CMCC(B) 26003 and E. coli) in vitro over time, based on the number of viable bacteria left at various time points after AMP exposure. Briefly, AMP at 2× MIC was added to MHB containing 10^6 CFU/mL S. aureus CMCC(B) 26003 or E. coli and the mixture was then incubated at 37°C and 100 rpm. At various time points, a sample was taken, serially diluted, and plated on MHA for colony counting ([Flamm et al., 2019]).

Data set [17] deals with S. aureus CMCC(B) 26003. The data set can be described thus: time-kill assay. The settings on record: 2× MIC, MHB with 10^6 CFU/mL, 37°C, 100 rpm, colony counting, n = 3. Type of data set: cell-based, Staphylococcus aureus. The method, then: as §6

“And” between values parts separate entries of the source, which are not always exact repeats. Equal values may be shown once.

Take `CC1(C)S[C@@H]2[C@H](NC(=O)[C@H](N)c3ccccc3)C(=O)N2[C@H]1C(=O)O` [ampicillin, reference compound]: the “Inhibition circle diameter (mm) E. coli” value was 29.37 mm with E. coli [1]; 27.03 ± 0.47 mm and 27.84 ± 0.30 mm and 30.50 ± 0.21 mm and 29.37 ± 0.31 mm in the data set on E. coli [1] (listed as +). The “Inhibition circle diameter (mm) P. aeruginosa CMCC(B)10104” value in [2] (listed as +) is 15.10 ± 0.43 mm and 16.52 ± 0.55 mm and 16.99 ± 0.39 mm and 14.48 ± 0.29 mm. The “Inhibition circle diameter (mm) B. thuringiensis” value with B. thuringiensis [3] was 17.95 ± 0.36 mm and 13.99 ± 0.61 mm and 17.47 ± 0.19 mm and 15.97 ± 0.49 mm. Further, the “Inhibition circle diameter (mm) S. aureus CMCC(B) 26003” value is 19.98 mm with S. aureus CMCC(B) 26003 [4]; 14.35 ± 0.49 mm and 15.58 ± 0.58 mm and 16.02 ± 0.34 mm and 19.98 ± 0.42 mm in the data set with S. aureus CMCC(B) 26003 [4] (listed as +). Moreover, in data set [5], the “Inhibition circle diameter (mm) C. albicans CMCC(F) 98001” value is 16.16 ± 0.51 mm and 17.74 ± 0.47 mm and 17.80 ± 0.25 mm and 19.69 ± 0.53 mm. For the same molecule, the “time after which E. coli growth began” value with E. coli [6] is reported as over 1 h. Besides, the “time after which S. aureus CMCC(B) 26003 growth began” value with S. aureus CMCC(B) 26003 [7] is “around 2 h”. Also, the “survival rate of mouse RAW 264.7 macrophages” value in data set [8] came out at 84.90%.

Regarding “STLHLVLRLR-NH2 [FD15, FD16 with -NH2 added to the terminal]”, the “Inhibition circle diameter (mm) E. coli” value in the data set on E. coli [1] is given as 11.18 ± 0.38 mm. In [2], the “Inhibition circle diameter (mm) P. aeruginosa CMCC(B)10104” value is 0 mm. For the same molecule, in the data set on B. thuringiensis [3], the “Inhibition circle diameter (mm) B. thuringiensis” value amounted to 9.15 ± 0.44 mm. Moreover, in the data set with S. aureus CMCC(B) 26003 [4], the “Inhibition circle diameter (mm) S. aureus CMCC(B) 26003” value amounted to 10.02 ± 0.22 mm. For the same molecule, the “Inhibition circle diameter (mm) C. albicans CMCC(F) 98001” value in data set [5] was found to be 0 mm. The “MIC (μg/mL) E. coli” value in the data set on E. coli [9] is 32 µg/mL. The “MIC (μg/mL) P. aeruginosa CMCC(B)10104” value in data set [10] is reported as “- (−Indicated that the MIC was greater than 256 μg/mL.)”. In the data set with B. thuringiensis [11], the “MIC (μg/mL) B. thuringiensis” value was determined as 128 µg/mL. For the same molecule, in the data set on S. aureus CMCC(B) 26003 [12], the “MIC (μg/mL) S. aureus CMCC(B) 26003” value came out at 16 µg/mL. Moreover, in data set [13], the “MIC (μg/mL) C. albicans CMCC(F) 98001” value is “- (−Indicated that the MIC was greater than 256 μg/mL.)”. For the same molecule, the “MIC, MgCl2” value against E. coli [14] (MHB with 1 mM MgCl2, 37°C) turned out to be 64 µg/mL; with S. aureus CMCC(B) 26003 [15] (S. aureus CMCC(B) 26003, MHB with 1 mM MgCl2, 37°C) it was 64 µg/mL. For the same molecule, the “MIC, FeCl3” value came to 16 µg/mL in the data set with E. coli [14] (MHB with 4 mM FeCl3, 37°C) and 32 µg/mL against S. aureus CMCC(B) 26003 [15] (S. aureus CMCC(B) 26003, MHB with 4 mM FeCl3, 37°C). The “MIC, KCl” value against E. coli [14] (MHB with 4.5 mM KCl, 37°C) is 64 µg/mL; in the data set on S. aureus CMCC(B) 26003 [15] (S. aureus CMCC(B) 26003, MHB with 4.5 mM KCl, 37°C), 32 µg/mL. In addition, the “MIC, NaCl” value with E. coli [14] (MHB with 150 mM NaCl, 37°C) worked out at 64 µg/mL; against S. aureus CMCC(B) 26003 [15] (S. aureus CMCC(B) 26003, MHB with 150 mM NaCl, 37°C), 64 µg/mL. Moreover, the “MIC, Control” value with E. coli [14] (MHB, absence of physiological salts, 37°C) worked out at 32 µg/mL; in the data set on S. aureus CMCC(B) 26003 [15] (S. aureus CMCC(B) 26003, MHB, absence of physiological salts, 37°C), 16 µg/mL. Besides, the “time within which almost all E. coli cells were killed” value in the data set on E. coli [16] is listed as at most 1 h. In addition, in the data set with S. aureus CMCC(B) 26003 [17], the “time within which almost all S. aureus cells were killed” value is at most 1 h.
